Laboratory results reported in patent publication US5430058A, “Pharmaceutical compositions comprising hydroxamate derivatives for iron removal” (Yeda Research and Development Co. Ltd., priority 1993, dated 1995).
≈ marks a conversion by molar mass, not a printed value. Where two headings read alike, the source gives them in different places.

Legend:
[1] = system: trophozoites of P. falciparum; assay: Antimalarial activity (Table 2), [3H]-hypoxanthine incorporation; assay type: cell-based, Plasmodium falciparum; conditions: Plasmodium falciparum
Method: g. Bioassay of iron carrier antimalarial activity. The antimalarial activity was assayed by adding the compounds from concentrated stock solutions (in DMSO) to microcultures (24 wells, Costar) containing infected red cells (2.5% hematocrit and 2% parasitemia). The cultures were usually synchronized (4-7 hrs. windows) by incubation in 300 mM Ala, 10 mM TRIS-Cl in conjunction with gelatin flotation and used either at the trophozoite (1-2% parasitemia) or at the ring stage (4-6% parasitemia) of the erythrocyctic cycle. After the indicated time of incubation with drug and either previous to or after washing 3 times with 100 volumes growth medium, the cells were supplemented with 6 μCi of either [^3 H]-hypoxanthine or [^3 H]-Ileu (Amersham, England) per well and parasite growth assessed after 24-48 hours by harvesting the labelled cells onto glass-fiber filters (Tamar, Inc. Jerusalem) and counting of the radioactivity. […]

[2] = Relative iron(III) binding efficiency by competition with EDTA; assay type: physicochemical; conditions: for rel. Fe binding (b): Table 2, relative to DFO = 1.16, 0.75 mM hydroxamate, 0.15 mM EDTA, 0.15 mM Fe3+ in aqueous methanol; for Pcoeff*Fe binding (a*b): product of relative partition coefficient and relative iron(III) binding; for Relative binding: Table 1, DFO = 100, competition with EDTA in aqueous MeOH
Method: c. The relative binding efficiencies of the reversed siderophores (0.75 mM reversed siderophore and 0.15 mM Fe^3+ in aqueous MeOH (MeOH-0.1N NaOAc) were incubated with EDTA (0.15 mM). After equilibration overnight, the fraction of siderophore- Fe^3+ complex present was determined at 430 nm.
(§1) The values for Pcoeff of free RSF ileun2 (the same as SF1ileu) and of leun2 and their respective iron(III) complexes were similar (not shown).

[3] = Partition between n-octanol and saline; assay type: physicochemical; conditions: for rel. Pcoeff (a): Table 2, relative to L-val-n1 = 1.0; for logP: Table 1, free ligand, read-out: Partition coefficient (converted)
Method: e. Partition coefficients were obtained by overnight equilibration of the free reversed siderophores between equal volumes of n-octanol and saline. The concentrations of the ligands in each phase were determined by adding excess iron(III) and measuring the ferric complexes at 430 nm.
as §1

[4] = Extraction of iron from aqueous FeCl3/citrate into chloroform; assay type: physicochemical; conditions: 0.3 mM in chloroform vs 0.3 mM FeCl3, 0.3 mM citric acid, 40 mM TRIS, pH 6.9, overnight
Method: d. Extractions were performed by overnight equilibration of 0.3 mM chloroform solutions of reversed siderophore with aqueous solutions of 0.3 mM FeCl3, 0.3 mM citric acid, 40 mM TRIS, pH 6.9. The amount of iron taken up into the organic phase was determined by the absorption of the iron+complex at 430 nm. No iron uptake into chloroform solutions devoid of RSF was observed by ion chromatography.

[5] = amino acid side chain, Tanford/Segret's scale as given by Eisenberg 1984; cited from earlier work
[6] = system: trophozoites of P. falciparum, strain ItG2G1; assay: Antimalarial activity (Table 1), [3H]hypoxanthine incorporation; assay type: cell-based; conditions: Plasmodium falciparum, 48 h
Method: f. Parasite cultures. The P. falciparum strains used in the experiments: ItG2G1 (Brazil, provided by Dr. L. H. Miller), D6 (W. African, provided by Dr. A. J. M. Oduola) FCR-3 (Gambian, provided by Dr. J. B. Jensen) and W2 (Indochina, provided by Dr. A. J. M. Oduola), were grown in culture flasks of human erythrocytes by a modified version of Trager and Jensen's method as described by Silfen et al. ((1988) Biochem. Pharmacol. 37: 4269-4276)).
g. Bioassay of iron carrier antimalarial activity. The antimalarial activity was assayed by adding the compounds from concentrated stock solutions (in DMSO) to microcultures (24 wells, Costar) containing infected red cells (2.5% hematocrit and 2% parasitemia). The cultures were usually synchronized (4-7 hrs. windows) by incubation in 300 mM Ala, 10 mM TRIS-Cl in conjunction with gelatin flotation and used either at the trophozoite (1-2% parasitemia) or at the ring stage (4-6% parasitemia) of the erythrocyctic cycle. After the indicated time of incubation with drug and either previous to or after washing 3 times with 100 volumes growth medium, the cells were supplemented with 6 μCi of either [^3 H]-hypoxanthine or [^3 H]-Ileu (Amersham, England) per well and parasite growth assessed after 24-48 hours by harvesting the labelled cells onto glass-fiber filters (Tamar, Inc. Jerusalem) and counting of the radioactivity.
The antimalarial activity of the different chelators was initially evaluated on cultures of trophozoites which were exposed for 24 hours to different concentrations of chelators. Following that period, [^3 H]-hypoxanthine or [^3 H]-Ileu were added and 24 hours later the parasitemia and incorporation of label into macromolecular material was determined.

normal red cells = assay: Uptake of 59Fe-carrier complexes into normal red cells; assay type: cell-based, human
Method: (§2) k. Uptake of radioactive carrier-Fe complexes. DFO and the different SF derivatives were pre-complexed with iron by addition of concentrated stock solutions of 20 mg/ml carriers to ^59 FeCl3 (Amersham, England) in 0.5 ml of 150 mM NaCl, 10 mM Hepes at 3-5 molar excess of carrier for 1 hour at room temperature. To begin the flux, normal or parasitized red cells that had been washed 3 times in saline buffer and resuspended in the same buffer supplemented with 5% bovine serum albumin (BSA), 2.5 mM citrate, 2 mg/ml glucose were added to radioactive ^59 Fe-complexes at a final suspension of 20% hematocrit. After incubation at 37° C., 75 μl suspension was removed in duplicate aliquots for each time point, placed in plastic 15 ml test tube (Starstedt) and centrifuged 1 minute at 2,500 g. The supernatant was removed and the pellet immediately placed on ice. After all sampling was completed the pellets were washed twice in 15 ml of ice cold buffer containing 50 mM EDTA and lysed in distilled water. Radioactivity (Gamma emission, 700-1300 Kev) was counted and the cell number for each sample determined from hemoglobin absorption of the lysate at 410 nm.
Due to the fact that RSF's have markedly greater lipophilicity than DFO, they were expected to faster penetrate and therefore more effectively chelate intracellular iron after short exposure times. Penetration of RSF's into normal and infected red cells was estimated by monitoring uptake of the RSF's-^59 Fe(III) complexes into infected and uninfected cells and compared to DFO. In order to confirm actual uptake of Fe-RSF ileun2 rather than adsorption to the outer membrane, cells were thoroughly washed and lysates were subjected to 80,000g×20 min centrifugation. More than 90% of the total counts were found in the cytosol fraction (results not shown).
FIGS. 8a and 8b show uptake of Fe^59 -carrier complexes into normal and infected red cells. Uptake of ^59 -Fe-RSF (FIG. 8a) and ^59 Fe-DFO (FIG. 8b) into normal (open symbols) and infected (closed symbols) red cells (60% parasitemia, >90% trophozoites). The carriers were pre-complexed to ^59 FeCl3 at 4:1 ration in DMSO with 5 μM external FeCl3 (from methanolic stock solutions). The radioactive complexes were then added to 20% hematocrit cell suspensions and flux was measured. Specific activity was 485000 cpm/nmole and 369000 cpm/nmole for the RSF and DFO uptake experiments, respectively. Cell number was determined from hemoglobin absorption of lysate at 410 nm.

infected red cells = assay: Uptake of 59Fe-carrier complexes into infected red cells; assay type: cell-based, human erythrocytes infected with P. falciparum
Method: as §2
Penetration of RSF's into normal and infected red cells was estimated by monitoring uptake of the RSF's-^59 Fe(III) complexes into infected and uninfected cells and compared to DFO. In order to confirm actual uptake of Fe-RSF ileun2 rather than adsorption to the outer membrane, cells were thoroughly washed and lysates were subjected to 80,000g×20 min centrifugation.
The carriers were pre-complexed to ^59 FeCl3 at 4:1 ration in DMSO with 5 μM external FeCl3 (from methanolic stock solutions). The radioactive complexes were then added to 20% hematocrit cell suspensions and flux was measured. […] Cell number was determined from hemoglobin absorption of lysate at 410 nm.

[7] = trophozoites, 40 hours exposure, mean of 3-4 experiments, read-out: IC50 (c)

Structure (SMILES)	IC50 [1, 7] [µM]	rel. Fe binding (b) [2]	Pcoeff*Fe binding (a*b) [2]	rel. Pcoeff (a) [3]	Extraction efficiency [4]	IC50 ([1]; 40 h, read-out: IC50 (c)) [µM]	Hydrophobicity [5]	Relative binding [2]	IC50 [6] [µg/mL]	logP [3]	Uptake kinetics compared with RSF-ileun2 (normal red cells)	Uptake kinetics compared with RSF-ileun2 (infected red cells)	IC50 ([1]; discussion of Table 2, unit inferred, read-out: IC50) [µM]	rel. Fe binding (b) ([2]; listed as L-val n1)	Fe-binding affinity relative to DFO ([2]; percent that of DFO) [%]	Pcoeff*Fe binding (a*b) ([2]; listed as L-val of n1 subfamily)	Pcoeff of free ligand vs iron(III) complex ([3]; not shown)
CC[C@H](C)[C@H](NC(=O)COCC(CC)(COCC(=O)N[C@H](C(=O)N(C)O)[C@@H](C)CC)COCC(=O)N[C@H](C(=O)N(C)O)[C@@H](C)CC)C(=O)N(C)O [(L--ileu) n=1]	3 ± 1	1.0	9.3	9.0	–	–	–	–	–	–	–	–	–	–	–	–	–
CCC(COCCC(=O)N[C@H](C)C(=O)N(C)O)(COCCC(=O)N[C@H](C)C(=O)N(C)O)COCCC(=O)N[C@H](C)C(=O)N(C)O [SF1--D--ala]	–	1.25	0.37	0.3	88	70 ± 13	1.0	108	45 (≈ 69.2 µM)	-0.276	–	–	–	–	–	–	–
CCC(COCCC(=O)N1CCC[C@H]1C(=O)N(C)O)(COCCC(=O)N1CCC[C@H]1C(=O)N(C)O)COCCC(=O)N1CCC[C@H]1C(=O)N(C)O [SFI--pro]	–	0.16	0.06	0.4	38	> 100	1.5	14	> 100	-0.187	–	–	–	–	–	–	–
CCC(COCC(=O)N[C@@H](CC(C)C)C(=O)N(C)O)(COCC(=O)N[C@@H](CC(C)C)C(=O)N(C)O)COCC(=O)N[C@@H](CC(C)C)C(=O)N(C)O [(L--leu) n=1]	5 ± 2	0.23	3.86	17.0	–	–	–	–	–	–	Identical uptake kinetics	Identical uptake kinetics	–	–	–	–	–
CCC(COCC(=O)N[C@H](C(=O)N(C)O)C(C)C)(COCC(=O)N[C@H](C(=O)N(C)O)C(C)C)COCC(=O)N[C@H](C(=O)N(C)O)C(C)C [(L--val) n=1]	4 ± 1	1.0	1.0	1.0	–	–	–	–	–	–	–	–	4	1	86	1	–
CC[C@@H](C)[C@@H](NC(=O)CCOCC(CC)(COCCC(=O)N[C@@H](C(=O)N(C)O)[C@H](C)CC)COCCC(=O)N[C@@H](C(=O)N(C)O)[C@H](C)CC)C(=O)N(C)O [(D--ileu) n=2]	–	0.298	2.4	8.2	–	9 ± 3	–	–	–	–	–	–	–	–	–	–	–
CCC(COCCC(=O)N[C@H](C(=O)N(C)O)C(C)C)(COCCC(=O)N[C@H](C(=O)N(C)O)C(C)C)COCCC(=O)N[C@H](C(=O)N(C)O)C(C)C [(L--val) n=2]	6 ± 2	1.31	2.8	2.1	–	–	–	–	–	–	–	–	–	–	–	–	–
CCC(COCCC(=O)N[C@@H](C)C(=O)N(C)O)(COCCC(=O)N[C@@H](C)C(=O)N(C)O)COCCC(=O)N[C@@H](C)C(=O)N(C)O [SF1--L--ala]	–	1.25	0.37	0.3	88	62 ± 10	1.0	108	40 (≈ 61.5 µM)	-0.276	–	–	–	–	–	–	–
CCC(COCCC(=O)N[C@@H](CC(C)C)C(=O)N(C)O)(COCCC(=O)N[C@@H](CC(C)C)C(=O)N(C)O)COCCC(=O)N[C@@H](CC(C)C)C(=O)N(C)O [SF1--L--leu]	–	0.12	0.9	7.4	35	22 ± 4	3.5	10	17 (≈ 21.9 µM)	1.1	–	–	–	–	–	–	similar
